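Values below derive from 48-hour exposures of cells grown in 96-well plates, with endpoints linearly interpolated between the two concentrations bracketing the appropriate inhibition level. At the GI50, growth is halved.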 Activity calls are given as the source filed them. Cut-off read from the data, not from the text of the source: active = GI50 up to about 1.1 µM and inactive = higher.
Key:
Experiment in all cases: inhibition of tumour cell growth, NCI panel, 48 h
SF-539 = tested on: SF-539
RPMI-8226 = tested on: RPMI-8226
COLO 205 = tested on: COLO 205
CAKI-1 = tested on: CAKI-1
UO-31 = tested on: UO-31
HCC 2998 = tested on: HCC 2998
UACC-257 = tested on: UACC-257
MOLT-4 = tested on: MOLT-4
SK-MEL-2 = tested on: SK-MEL-2
SK-MEL-28 = tested on: SK-MEL-28
LOX IMVI = tested on: LOX IMVI
OVCAR-4 = tested on: OVCAR-4
SN12C = tested on: SN12C
HT-29 = tested on: HT-29
OVCAR-5 = tested on: OVCAR-5
HCT-15 = tested on: HCT-15
T47D = tested on: T47D
DU-145 = tested on: DU-145
NCI/ADR-RES = tested on: NCI/ADR-RES
MCF7 = tested on: MCF7

SMILES	GI50 (SF-539)	GI50 (RPMI-8226)	GI50 (COLO 205)	GI50 (CAKI-1)	GI50 (UO-31)	GI50 (HCC 2998)	GI50 (UACC-257)	GI50 (MOLT-4)	GI50 (SK-MEL-2)	GI50 (SK-MEL-28)	GI50 (LOX IMVI)	GI50 (OVCAR-4)	GI50 (SN12C)	GI50 (HT-29)	GI50 (OVCAR-5)	GI50 (HCT-15) [µM]	GI50 (T47D)	GI50 (DU-145)	GI50 (NCI/ADR-RES)	GI50 (MCF7)
Cc1cccc(C)c1NC(=O)CCCC(=O)C1CCC/C1=N\NC(=O)C(=O)NN (stereo not given)	> 100 µM (inactive)	> 100 µM (inactive)	> 100 µM (inactive)	> 100 µM (inactive)	> 100 µM (inactive)	> 100 µM (inactive)	> 100 µM (inactive)	> 100 µM (inactive)	> 100 µM (inactive)	> 100 µM (inactive)	> 100 µM (inactive)	> 100 µM (inactive)	> 100 µM (inactive)	> 100 µM (inactive)	> 100 µM (inactive)	> 100	–	–	–	–
CN1C2CCC1CC(CCOC(c1ccc(F)cc1)c1ccc(F)cc1)C2 (stereo not given)	15.9 µM (inactive)	18.6 µM (inactive)	11.7 µM (inactive)	16.3 µM (inactive)	14.6 µM (inactive)	–	17.1 µM (inactive)	11.9 µM (inactive)	16.9 µM (inactive)	16 µM (inactive)	16.6 µM (inactive)	17.4 µM (inactive)	18.4 µM (inactive)	6.73 µM (inactive)	15.9 µM (inactive)	16.9	18.5 µM (inactive)	15.7 µM (inactive)	17.5 µM (inactive)	–
O=S1(=O)c2ccccc2NC(c2ccc3ccccc3c2)CC1c1ccccc1F (stereo not given)	> 100 µM (inactive)	> 100 µM (inactive)	> 100 µM (inactive)	> 100 µM (inactive)	> 100 µM (inactive)	> 100 µM (inactive)	> 100 µM (inactive)	> 100 µM (inactive)	> 100 µM (inactive)	> 100 µM (inactive)	> 100 µM (inactive)	> 100 µM (inactive)	> 100 µM (inactive)	> 100 µM (inactive)	> 100 µM (inactive)	> 100	–	–	–	–
O=C1CCCc2c(O)ccc(O)c21	> 100 µM (inactive)	40.6 µM (inactive)	> 100 µM (inactive)	–	> 100 µM (inactive)	> 100 µM (inactive)	> 100 µM (inactive)	27.9 µM (inactive)	> 100 µM (inactive)	> 100 µM (inactive)	> 100 µM (inactive)	> 100 µM (inactive)	> 100 µM (inactive)	> 100 µM (inactive)	> 100 µM (inactive)	> 100	–	–	–	–
N#CC1C[C@@H]2CC3(CCC2CN1C(=O)c1ccccc1)OCCO3 (stereo not given in full)	> 100 µM (inactive)	> 100 µM (inactive)	> 100 µM (inactive)	–	> 100 µM (inactive)	> 100 µM (inactive)	> 100 µM (inactive)	> 100 µM (inactive)	0.0925 µM (active)	> 100 µM (inactive)	> 100 µM (inactive)	> 100 µM (inactive)	> 100 µM (inactive)	> 100 µM (inactive)	> 100 µM (inactive)	> 100	–	–	–	–
O=C1NC(O)n2c(=O)[nH]c(=O)n21 (stereo not given)	> 100 µM (inactive)	> 100 µM (inactive)	> 100 µM (inactive)	> 100 µM (inactive)	> 100 µM (inactive)	> 100 µM (inactive)	> 100 µM (inactive)	> 100 µM (inactive)	> 100 µM (inactive)	> 100 µM (inactive)	> 100 µM (inactive)	> 100 µM (inactive)	> 100 µM (inactive)	> 100 µM (inactive)	> 100 µM (inactive)	> 100	–	–	–	–
COc1ccccc1C1c2cc3c(cc2OC(O)(CO)C1C(=O)O)OCO3.COc1ccccc1C1c2cc3c(cc2OC2(O)COC(=O)C12)OCO3 (stereo not given)	> 100 µM (inactive)	> 100 µM (inactive)	> 100 µM (inactive)	–	> 100 µM (inactive)	> 100 µM (inactive)	> 100 µM (inactive)	70 µM (inactive)	> 100 µM (inactive)	> 100 µM (inactive)	> 100 µM (inactive)	> 100 µM (inactive)	> 100 µM (inactive)	> 100 µM (inactive)	> 100 µM (inactive)	> 100	–	–	–	–
C=CN1C(=O)OC[C@@H]1c1ccccc1	> 100 µM (inactive)	34.3 µM (inactive)	> 100 µM (inactive)	> 100 µM (inactive)	> 100 µM (inactive)	> 100 µM (inactive)	> 100 µM (inactive)	> 100 µM (inactive)	> 100 µM (inactive)	> 100 µM (inactive)	67 µM (inactive)	> 100 µM (inactive)	> 100 µM (inactive)	> 100 µM (inactive)	> 100 µM (inactive)	16.6	–	–	–	–
CCOC(=O)N(NC(=O)NC(C)C)c1ccccc1	> 100 µM (inactive)	–	> 100 µM (inactive)	> 100 µM (inactive)	> 100 µM (inactive)	84.1 µM (inactive)	> 100 µM (inactive)	> 100 µM (inactive)	> 100 µM (inactive)	> 100 µM (inactive)	> 100 µM (inactive)	> 100 µM (inactive)	> 100 µM (inactive)	> 100 µM (inactive)	> 100 µM (inactive)	> 100	–	–	> 100 µM (inactive)	> 100 µM (inactive)
CCOP(=O)(OCC)C(c1ccc(F)cc1)N(C(=O)NC(F)(F)F)c1ccc(OC)cc1 (stereo not given)	> 100 µM (inactive)	> 100 µM (inactive)	> 100 µM (inactive)	> 100 µM (inactive)	> 100 µM (inactive)	> 100 µM (inactive)	> 100 µM (inactive)	> 100 µM (inactive)	–	> 100 µM (inactive)	> 100 µM (inactive)	–	> 100 µM (inactive)	> 100 µM (inactive)	> 100 µM (inactive)	> 100	–	> 100 µM (inactive)	> 100 µM (inactive)	> 100 µM (inactive)
O=C1CCc2nc3ncccc3cc2C1	–	64.1 µM (inactive)	> 100 µM (inactive)	> 100 µM (inactive)	79.8 µM (inactive)	> 100 µM (inactive)	> 100 µM (inactive)	29.9 µM (inactive)	> 100 µM (inactive)	> 100 µM (inactive)	–	> 100 µM (inactive)	> 100 µM (inactive)	–	> 100 µM (inactive)	96.4	> 100 µM (inactive)	–	> 100 µM (inactive)	–
COc1ccc2c(c1)CCc1cnn(C3OC(COC(C)=O)C(OC(C)=O)C(OC(C)=O)C3OC(C)=O)c1-2 (stereo not given)	> 100 µM (inactive)	16.7 µM (inactive)	84.7 µM (inactive)	76.2 µM (inactive)	–	> 100 µM (inactive)	> 100 µM (inactive)	29.2 µM (inactive)	> 100 µM (inactive)	41.1 µM (inactive)	> 100 µM (inactive)	–	> 100 µM (inactive)	37.2 µM (inactive)	> 100 µM (inactive)	38.2	–	–	–	–
O=C(NCCCCCCCCCCCCNC(=O)c1cnc2ccccc2n1)c1cnc2ccccc2n1	15.1 µM (inactive)	23.4 µM (inactive)	> 100 µM (inactive)	> 100 µM (inactive)	23.9 µM (inactive)	> 100 µM (inactive)	47.8 µM (inactive)	> 100 µM (inactive)	> 100 µM (inactive)	> 100 µM (inactive)	39.8 µM (inactive)	13.6 µM (inactive)	66.1 µM (inactive)	> 100 µM (inactive)	–	> 100	–	–	–	–
CC(N)Cc1ccc(Cl)c(Cl)c1 (stereo not given)	12.4 µM (inactive)	34.8 µM (inactive)	20.3 µM (inactive)	23.6 µM (inactive)	19.8 µM (inactive)	17.3 µM (inactive)	22.9 µM (inactive)	29.2 µM (inactive)	19.4 µM (inactive)	20.4 µM (inactive)	27.2 µM (inactive)	67.8 µM (inactive)	30.2 µM (inactive)	24.3 µM (inactive)	30.1 µM (inactive)	30	–	–	–	–
O=C(CP(=O)(O)O)c1cccs1	> 100 µM (inactive)	> 100 µM (inactive)	> 100 µM (inactive)	> 100 µM (inactive)	> 100 µM (inactive)	> 100 µM (inactive)	> 100 µM (inactive)	–	> 100 µM (inactive)	> 100 µM (inactive)	> 100 µM (inactive)	–	> 100 µM (inactive)	> 100 µM (inactive)	> 100 µM (inactive)	> 100	–	–	–	–
CCOC(=O)/C=C/c1ccccn1	> 100 µM (inactive)	> 100 µM (inactive)	> 100 µM (inactive)	> 100 µM (inactive)	> 100 µM (inactive)	> 100 µM (inactive)	> 100 µM (inactive)	> 100 µM (inactive)	> 100 µM (inactive)	> 100 µM (inactive)	> 100 µM (inactive)	> 100 µM (inactive)	> 100 µM (inactive)	> 100 µM (inactive)	> 100 µM (inactive)	> 100	–	–	–	–
O=C(Nc1ccc(Cl)cc1C(F)(F)F)C(=O)Nn1c(S)nc2ccccc2c1=O	> 100 µM (inactive)	> 100 µM (inactive)	–	> 100 µM (inactive)	> 100 µM (inactive)	> 100 µM (inactive)	> 100 µM (inactive)	> 100 µM (inactive)	> 100 µM (inactive)	> 100 µM (inactive)	> 100 µM (inactive)	60.4 µM (inactive)	> 100 µM (inactive)	> 100 µM (inactive)	> 100 µM (inactive)	> 100	> 100 µM (inactive)	–	> 100 µM (inactive)	> 100 µM (inactive)
O=C1CCCCC1C1(O)C(=O)Nc2cc(F)ccc21 (stereo not given)	> 100 µM (inactive)	> 100 µM (inactive)	> 100 µM (inactive)	> 100 µM (inactive)	> 100 µM (inactive)	> 100 µM (inactive)	> 100 µM (inactive)	> 100 µM (inactive)	> 100 µM (inactive)	> 100 µM (inactive)	> 100 µM (inactive)	> 100 µM (inactive)	> 100 µM (inactive)	> 100 µM (inactive)	> 100 µM (inactive)	> 100	–	–	–	–
